{"source": "patent US9290440B2", "about": "“Bicyclic compound” (TOA EIYO LTD., priority 2012, dated 2016)", "key": {"[1]": {"tested_on": "abdominal aorta ring specimen", "experiment": "Evaluation of blood vessel relaxing function (phenylephrine-contracted abdominal aorta ring)", "details": "relaxation of rat abdominal aorta contracted with 1 μmol/L phenylephrine; without vs with 10 μmol/L ODQ", "experimental": "The representative compounds of the present invention were evaluated by blood vessel relaxing function according to the following Test Example. In the assay, bleeding from the upper part of a heart of a rat (male, SD) was performed under anesthesia with pentobarbital (30 mg/kg) and then abdominal aorta was extracted. The connecting tissue adhered around blood vessel was removed from the abdominal aorta in an ice-cooled Krebs-Henseleit solution (KH solution) (118 mmol/L sodium chloride, 4.7 mmol/L potassium chloride, 1.2 mmol/L magnesium sulfate, 1.2 mmol/L potassium dihydrogen phosphate, 25 mmol/L sodium hydrogen carbonate, 2.5 mmol/L calcium chloride, and 10 mmol/L glucose, pH 7.4). After that, a ring specimen with length of 2 mm was prepared and fixed in 5 mL organ bath filled with a KH solution. The KH solution was kept at 37° C. and aerated with a mixture gas of 95% O2 and 5% CO2. The specimen was stabilized for 1 hour with static tension of 1 g. The KH solution was exchanged twice during that time. The tension on the specimen was recorded on a multi-channel recorder via pickup and amplifier. After the stabilization of the specimen, contraction was caused by using 1 μmol/L phenylephrine (Phe), and cumulative administration of each compound (0.001, 0.01, 0.03, 0.1, 0.3, 1, 3, 10, 30, 100, 1000, 10000 nmol/L) was performed. For the evaluation of a case in which 1H-1,2,4-oxadiazole-(4,3a)-quinoxalin-1-one (ODQ) is contained, 10 μmol/L ODQ was added 10 minutes before the Phe addition, and the same evaluation as above was performed.\nEC50 value was calculated using four-parameter logistics model using Assay Explorer (Accelrys). The test compound solution was dissolved in DMSO such that the concentration of each test compound is 1000 times the final concentration."}, "[2]": {"molecular_target": "T1, human sGC α subunit and β subunit (Homo sapiens, UniProt Q02153)", "T1 construct": "expressed in transfected cells", "T1 sequence (Q02153 1-619)": "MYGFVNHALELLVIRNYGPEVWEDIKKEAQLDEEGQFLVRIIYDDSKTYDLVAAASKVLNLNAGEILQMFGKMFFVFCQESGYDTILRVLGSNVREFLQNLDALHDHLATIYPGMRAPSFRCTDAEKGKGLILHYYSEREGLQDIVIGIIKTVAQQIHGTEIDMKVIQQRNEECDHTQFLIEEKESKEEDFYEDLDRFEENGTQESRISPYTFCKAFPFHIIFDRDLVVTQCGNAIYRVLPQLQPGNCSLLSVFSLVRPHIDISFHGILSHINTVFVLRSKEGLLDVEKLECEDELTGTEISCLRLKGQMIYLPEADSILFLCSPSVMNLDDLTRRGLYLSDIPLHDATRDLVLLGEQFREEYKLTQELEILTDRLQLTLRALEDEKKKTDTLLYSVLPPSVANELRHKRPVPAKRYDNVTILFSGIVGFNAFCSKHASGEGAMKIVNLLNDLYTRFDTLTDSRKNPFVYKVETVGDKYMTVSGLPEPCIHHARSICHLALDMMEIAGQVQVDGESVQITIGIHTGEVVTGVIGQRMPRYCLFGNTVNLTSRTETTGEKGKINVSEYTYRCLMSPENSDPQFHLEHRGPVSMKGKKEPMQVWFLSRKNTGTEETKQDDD", "T1 sequence (Q02108 1-690 partner)": "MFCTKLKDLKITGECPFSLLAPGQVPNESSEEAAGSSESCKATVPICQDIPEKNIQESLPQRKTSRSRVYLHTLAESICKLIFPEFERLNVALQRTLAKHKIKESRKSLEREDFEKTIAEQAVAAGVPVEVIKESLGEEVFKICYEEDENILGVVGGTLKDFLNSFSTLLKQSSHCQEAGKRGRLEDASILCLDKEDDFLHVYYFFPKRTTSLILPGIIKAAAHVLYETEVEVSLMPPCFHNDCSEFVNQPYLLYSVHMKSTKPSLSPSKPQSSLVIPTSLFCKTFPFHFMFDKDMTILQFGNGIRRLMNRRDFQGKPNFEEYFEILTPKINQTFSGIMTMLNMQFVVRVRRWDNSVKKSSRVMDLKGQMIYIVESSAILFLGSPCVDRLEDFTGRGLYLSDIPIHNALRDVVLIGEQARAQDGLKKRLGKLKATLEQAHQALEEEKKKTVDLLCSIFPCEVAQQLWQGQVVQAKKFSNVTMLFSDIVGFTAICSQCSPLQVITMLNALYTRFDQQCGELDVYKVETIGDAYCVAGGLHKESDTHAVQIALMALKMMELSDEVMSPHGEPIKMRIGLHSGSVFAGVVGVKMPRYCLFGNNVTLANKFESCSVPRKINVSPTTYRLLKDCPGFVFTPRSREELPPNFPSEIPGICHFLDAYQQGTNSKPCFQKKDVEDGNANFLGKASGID", "experiment": "Maximum effect of sGC activating function (Ca2+ fluorescence in CHO-K1 cells expressing human sGC and mouse CNGA2)", "assay_type": "cell-based", "details": "increase ratio of sGC activity vs control solution at 10 μmol/L test compound", "experimental": "For the assay, Chinese hamster ovary cells (CHO-K1 cells) in which human sGC α subunit and β subunit and mouse cyclic nucleotide gated channel (CNGA2) are stably expressed were used.\nCHO-K1 cells in which human sGC and mouse CNGA2 are stably expressed were cultured at 37° C. in F-12 medium containing 10% (v/v) fetal bovine serum (FBS), penicillin (100 U/mL), streptomycin (100 μg/mL), G418 (250 μg/mL), and zeocin (250 μg/mL). The cells were suspended in the culture medium and seeded onto a 96-well plate, and then cultured at 37° C. for 24 hours. After washing with assay buffer 1 (140 mmol/L sodium chloride, 5 mmol/L potassium chloride, 0.5 mmol/L magnesium chloride, 0.01 mmol/L calcium chloride, 10 mmol/L glucose, 0.4 mmol/L magnesium sulfate, 10 mmol/L 4-(2-hydroxyethyl)piperazin-1-ylethane sulfonic acid, and 125 μmol/L sulfinpyrazone, pH 7.4), an indicator solution in which FURA2-AM as a fluorescent Ca^2+ indicator is dissolved at concentration of 5 μmol/L in assay buffer 1 was added followed by culture for 60 minutes at 37° C. The indicator solution was removed. After washing with assay buffer 1, the test compound solution was added and incubated for 10 minutes at room temperature. The plate was placed in a fluorometer (Flex Station II, Molecular Devices, LLC), and then the intracellular calcium concentration was measured as fluorescence intensity ratio which is obtained from each excitation wavelength (excitation wavelength of 340 nm and 380 nm and detection wavelength of 510 nm).\nThe test compound solution was prepared by dissolving each of the test compounds in DMSO to a concentration of 10 mmol/L, and then adding the assay buffer 2 (140 mmol/L sodium chloride, 5 mmol/L potassium chloride, 0.5 mmol/L magnesium chloride, 1 mmol/L calcium chloride, 10 mmol/L glucose, 0.4 mmol/L magnesium sulfate, 10 mmol/L 4-(2-hydroxyethyl)piperazin-1-ylethane sulfonic acid, 125 μmol/L sulfinpyrazone, 100 μmol/L isobutylmethylxanthine, 10 μmol/L 1H-[1,2,4]-oxadiazole[4,3-a]quinoxalin-1-one (hereinbelow, ODQ), pH 7.4) for dilution to have test concentration of 10 μmol/L. For the evaluation of a case in which ODQ is not contained, the same evaluation was performed except that ODQ is excluded from assay buffer 2. As a control solution, a DMSO solution was used instead of the test compound solution.\nThe activity of the test compound corresponds to the increase ratio (%) of the sGC activity at the time of adding the test compound solution with respect to the sGC activity at the time of adding the control solution, and it was calculated by dividing the fluorescence intensity ratio at the time of adding the test compound by the fluorescence intensity ratio of the control solution and subtracting the sGC activity (100%) at the time of adding the control solution.\nIn this assay, intracellular cGMP concentration increases as sGC is activated, and according to opening of CNGA2 following the increase of cGMP, intracellular Ca^2+ concentration increases. Thus, SGC activation can be measured by following the change in intracellular Ca^2+ concentration. […] Thus, in the absence of ODQ, the maximum sGC activating function including the heme-dependent activation can be evaluated while the heme-independent sGC activating function can be evaluated in the presence of ODQ."}}, "note": "Like-named read-outs stand apart in the source and are kept apart here."}
{"compound": "O=C(O)CCCCN(CCc1ccccc1OCc1ccc2c(c1)CCC2)C1CCCc2cc(C(=O)O)ccc21", "note": "(stereo not drawn) [Example 46, 5-{N-(4-Carboxybutyl)-N-[2-[2-(indane-5-ylmethoxy)phenyl]ethyl]amino}-5,6,7,8-tetrahydronaphthalene-2-carboxylic acid]", "values": [{"measurement": "EC50 Ratio (ODQ−/ODQ+)", "setting": "[1]", "result": 5.2}, {"measurement": "Emax at 10 µM", "setting": "[2]; ODQ not contained, read-out: Emax (%) ODQ− (Heme-dependent)", "result": 81.3, "unit": "%"}, {"measurement": "Emax at 10 µM", "setting": "[2]; with 10 μmol/L ODQ, read-out: Emax (%) ODQ+ (Heme-independent)", "result": 123, "unit": "%"}]}
